The source of these data is US20030040541A1, “Use of bismuth subgallate in inhibition of production of nitric oxide synthase” (Hedonist Biochemical Technologies Co., Ltd., priority 2001, published 2003).

The test has as its system RAW 264.7 cells. Description: NO production (nitrite, Griess reaction) by LPS/IFN-γ activated RAW 264.7 cells. It is filed as cell-based, mice. The settings on record: 24 hours. The method, then:
The cells of the mice macrophage cell line RAW 264.7 (under accession number CCRC 60001), which was obtained from Cell Culture Research Center, Food Industry Research and Development Institute, Hsinchu, Taiwan, R.O.C., were used for the test.
The RAW 264.7 cells were incubated in a 96 well tissue culture plate (Falcon). After 24 hours, the cells were activated with Dulbecco's Modified Eagle Medium (DMEM, 2014, GibcoBRL) in the presence and absence of 100 ng/ml LPS, 100 U/ml IFN-γ and various concentrations (10 μM, 20 μM, 50 μM, 100 μM and 200 μM) of bismuth subgallate (Hwang et al., 1994, J. Biol. Chem. 269, p. 711-715). After 24 hours, 50 μl of the supernatant from each well was assayed for the presence of nitrite through the Saville modification of the Griess reaction (Green et al., Analytical Biochem, 1982, 126:131-138). The results were represented by the means plus standard errors values (Mean±SE) of three repetitions.
The effect of borneol on the inhibition of NO synthase was tested through the same experimental procedures as described in Example 1. Various concentrations of borneol (0 μM, 40 μM, 80 μM, 160 μM, 320 μM and 640 μM) were used to replace bismuth subgallate of Example 1. The results were represented by the mean values of three repetitions with standard errors (Mean±SE).
The effect of bismuth subgallate in combination with borneol on the inhibition of NO synthase was tested through the similar experimental procedures as described in Example 1. The following concentrations of Bismuth subgallate: 0 μM, 12.5 μM, 25 μM, 50 μM and 100 μM, were combined with the following concentrations of borneol: 0 μM, 10 μM, 20 μM and 40 μM, respectively, to obtain the combinations for the replacement of bismuth subgallate used in Example 1. The results were represented by the mean values of three repetitions with standard errors (Mean±SE).
(In general: Griess reagent forms a coloured azo dye with nitrite.)

Consider `CC1(C)C2CCC1(C)C(O)C2` (stereo not drawn) [borneol], for which the “NO production (nitrite concentration in supernatant)” value (borneol 0, 40, 80, 160, 320, 640 μM, LPS + IFN-γ activated cells, FIG. 2) was “not significantly inhibited”.

With bismuth subgallate, under “bismuth subgallate 10, 20, 50, 100, 200 μM, 100 ng/ml LPS + 100 U/ml IFN-γ, FIG. 1”, the “NO production (nitrite concentration in supernatant)” value was “showed a reduction in nitrite concentration”. The “concentration dependence of NO production” value (bismuth subgallate 10-200 μM, LPS + IFN-γ activated cells, FIG. 1) was “inversely proportional to the increase in the concentration of bismuth subgallate”.
